Experimental data taken from PMC10859961, “Ir(III) Half-Sandwich Photosensitizers with a π-Expansive Ligand for Efficient Anticancer Photodynamic Therapy” (Journal of Medicinal Chemistry, 2024).
Like-named read-outs stand apart in the source and are kept apart here.

How the values were obtained:
[1] = Reactivity of 1w with n-Bu4NCl (1H NMR); format: physicochemical; conditions: 100 equivalents of n‐Bu4NCl
Description: A solution of 1w (3.0 mM) with 100 equiv of n-Bu4NCl (300 mM) in a DMSO-d6/D2O (9:1, v/v) mixture was monitored by NMR spectroscopy at room temperature and at 60 °C.

[2] = Stability in DMEM (UV-vis); format: physicochemical; conditions: DMEM without phenol red; dark; 48 h
Description: The stability of the complexes in biological media was studied by UV–vis spectroscopy. Complexes 1 and 2 were dissolved in DMSO and complexes 3–8 were dissolved in MeOH at 1.0 × 10^–3 M and then diluted to 1.0 × 10^–5 M with Dulbecco’s modified Eagle’s medium (DMEM) without phenol red (Corning) (the final concentration of DMSO or MeOH was 1%). The solutions were studied in the dark and under blue light irradiation (470 nm).

[3] = system: multicellular A549 tumor spheroids; test: Cytotoxic activity against spheroids (CellTiter-Glo 3D); format: cell-based, human; conditions: for IC50: 48 h
Description: For the evaluation of the cytotoxic activity of complex 6 in 3D cultures, 96-well plates coated with a thin solidified layer of Geltrex reduced growth factor basement membrane matrix (Gibco) were used to form A549 spheroids. A density of 1500 single cells per well was seeded in culture medium supplemented with 2% Geltrex. Treatments with concentrations of complex 6 ranging from 5 to 0.001 μM in culture medium containing 2% Geltrex were performed at day 6. The cells were then kept in the dark or photoactivated with blue light, as described. After 48 h, the treatments were removed, the cells were washed with PBS and cell viability was determined by adding 100 μL of medium and 100 μL of CellTiter-Glo 3D reagent (Promega) to each well. Following the manufacturer’s protocol, the cells were kept in agitation for 5 min and incubated for 25 min at room temperature. Then, the luminescence was determined using a Multiscan Plate Reader (Synergy 4, Biotek, Winooski). The IC50 values were calculated with the Gen5 Data Analysis Software (BioTeck) for two independent experiments, each with duplicate samples. Nontreated cells were used as control.

A549 cells [4] = test: Cell internalization (iridium content by ICP-MS); format: cell-based, human; conditions: for iridium content in cells: 10 μM, 1 h
Description: To assess the cell internalization mechanism, 8 × 10^6 A549 cells were incubated with complex 6 at 10 μM for 1 h in the dark under different conditions: (i) at 37 °C (positive control cells), (ii) at 37 °C in the presence of CCCP (50 μM) (to inhibit mitochondrial ATP production) or (iii) at 4 °C (to inhibit cellular metabolism). The cells incubated with medium alone were included as negative control. Then, the cells were washed twice with PBS, detached with trypsin, and centrifuged to obtain the whole cell pellet. […] The iridium amount in the samples was then determined by inductively coupled plasma mass spectrometry (ICP-MS) analysis. To this end, the cell pellets were dissolved in 400 μL of 69% v/v nitric acid (PanReac Applichem) and heated in a water bath at 100 °C for 18 h. Samples were then allowed to cool and diluted with Milli-Q water to a final volume of 10 mL. […] Iridium content was measured on an ICP-MS Agilent 7500c instrument at the Serveis Tècnics de Recerca, Universitat de Girona. The solvent used for all ICP-MS experiments was Milli-Q water with 2% superpure grade HNO3. The iridium standard (high purity standards, 1000 μg/mL ± 2 μg/mL in 5% hydrochloric acid in low TOC water (<50 ppb)) was diluted with 2% HNO3 to 400 ppb. Iridium standards were freshly prepared in Milli-Q water with 2% HNO3 before each experiment. The concentrations used for the calibration curve were 0, 1, 2, 5, 10, and 20 ppb. The isotope detected was 193Ir and readings were done in triplicate. Rhodium was added as an internal standard at a concentration of 10 ppb to all samples. All of the experiments were performed by duplicate.

A549 cells [5] = test: Subcellular distribution (cell fractionation, ICP-MS); format: cell-based, human; conditions: 10 μM, 4 h, 37 °C
Description: The intracellular distribution of complex 6 was explored by measuring the iridium content in different cellular compartments: nucleus, membrane/particulate (which includes cellular organelles and organelle’s membrane proteins), cytosol, and cytoskeleton. To this end, 8 × 10^6 A549 cells were incubated with 6 at 10 μM for 4 h in the dark at 37 °C. Then, the cells were washed twice with PBS, detached with trypsin, and centrifuged to obtain the whole cell pellet. The viability of the cells was assessed through Trypan blue staining, which confirmed that over 95% of the cells were viable. The different cell fractions were then isolated using the FractionPREP Cell Fractionation kit (BioVision) and the total iridium content in each fraction was measured by ICP-MS in two independent experiments, as described above.

A549 cells [6] = test: Cell death mechanism (Annexin V-FITC / propidium iodide); format: cell-based, human; conditions: photoactivated
Description: The cell death mechanism was analyzed with the Vybrant Apoptosis Assay Kit (Molecular Probes). A549 cells seeded in 12-well plates at a density of 1 × 10^5 cells per well were treated with complex 6 at the corresponding IC50,light × 5 under photoactivation conditions. Cisplatin at 50 μM was used as positive control. 4 and 20 h after the irradiation, cells were collected by trypsinization and immediately stained with Annexin V-FITC and propidium iodide according to the manufacturer’s instructions. The median fluorescence of 10,000 cells of each sample was analyzed by flow cytometry. Annexin-FITC staining was detected at a wavelength of 520 nm (FL1) and propidium iodide was detected at 617 nm (FL2).

| Compound | chloride complex 1 formed back from 1w ([1]; 60 °C, 15 minutes) | chloride complex 1 formed back from 1w ([1]; room temperature, 4 days) | stability in DMEM (UV–vis changes) [2] | IC50 ([3]; blue light photoactivation, read-out: IC50,light) | IC50 ([3]; dark, read-out: IC50,dark) | PI ([3]; blue light) | iridium content in cells (A549 cells [4]; 4 °C) | iridium content in cells (A549 cells [4]; 37 °C, no inhibition) | iridium content in cells (A549 cells [4]; CCCP pretreatment) | reduction of iridium content vs 37 °C (A549 cells [4]; at 4 °C or with CCCP pretreatment) | iridium in cytoskeletal fraction (A549 cells [5]) | iridium in cytosolic fraction (A549 cells [5]) | iridium in membrane/organelles fraction (A549 cells [5]) | iridium in nuclear fraction (A549 cells [5]) | cells in early apoptosis (AN+; IP−), lower right quadrant (A549 cells [6]; IC50,light × 5, 4 h) | cells in late apoptosis (AN+; IP+), upper right quadrant (A549 cells [6]; IC50,light × 5, 4 h) | cells in necrosis (AN–; IP+), upper left quadrant (A549 cells [6]; IC50,light × 5, 4 h) | cells in late apoptosis (AN+; IP+), upper right quadrant (A549 cells [6]; IC50,light × 5, 20 h) | cells in necrosis (AN–; IP+), upper left quadrant (A549 cells [6]; IC50,light × 5, 20 h) |
| --- | --- | --- | --- | --- | --- | --- | --- | --- | --- | --- | --- | --- | --- | --- | --- | --- | --- | --- | --- |
| Cc1c(C)c(C)[c-](C)c1C.[Cl][Ir]1[c]2cccc3c4nc5ccccc5nc4c4ccc[n+]1c4c23 [complex 1, [(η^5-C5Me5)IrCl(pbpz)]] | approximately 15% | 2% | minor change |  |  |  |  |  |  |  |  |  |  |  |  |  |  |  |  |
| Cc1c(C)c(C)[c-](C)c1C.F[B-](F)(F)F.c1ccc2cc3nc4c5ccc[n+]6c5c5[c](cccc5c4nc3cc2c1)[Ir]6[n+]1ccn(CCN2CCCCC2)c1 [complex 6, [(η^5-C5Me5) Ir(Imepip)(pbpn)]BF4] |  |  |  | 5 ± 1 nM | 1200 ± 200 nM | 240 | 18.0 ± 3 ng/10^6 cells | 87.6 ± 4 ng/10^6 cells | 17.6 ± 2 ng/10^6 cells | approximately 80% | 11.0 ± 4 ng Ir/10^6 cells | 4.6 ± 2 ng Ir/10^6 cells | 140.8 ± 20 ng Ir/10^6 cells | 7.1 ± 4 ng Ir/10^6 cells | 1.7% | 15.8% | 6.4% | 43.2% | 10.4% |
